The values below come from patent US20050281890A1 (priority 2004, published 2005).

In series [1] the test system is 8×16-mm full-thickness excisional wounds. Conditions: for wound closure: p<0.05. On the procedure: FIG. 3. […] Two 8×16 mm full-thickness excisional wounds (inset) were placed on the dorsal skin of C57BL/6 male mice (8 wk old). […] For determination of surface microflora, wounds (treated with either 1.25 micromole H2O2/wound, open bar, or saline, closed bar) were swabbed (24-48 h post wounding) for 20 sec with an alginate-tipped applicator. Quantitative assessment of surface bacterial load was performed. For deep tissue wound microflora, 48 h after wounding eschar tissue was removed, wound bed tissue underneath eschar was sampled and quantitative assessment of bacterial load was performed. Values shown represent mean±SD of CFU of four observations. C.
Briefly, two 8×16-mm full-thickness excisional wounds (FIG. 3, insets) were placed on the dorsal skin of C57BL/6 male mice (8 weeks old). Each of the two wounds was topically treated either with H2O2 or saline.

For series [2], the system named is CD31. Particulars: 1.25 micromole/wound, days 0-4; day 8 post-wounding; vs control. Here is the method:
(§1) FIG. 4. […] Paired excisional wounds (FIG. 2) were either treated with placebo saline or H2O2 (1.25 micromole/wound, days0-4, once daily). Wound-edge tissue was collected at indicated times after wounding. A. Ribonuclease protection assay (RPA) showing kinetics of angiogenesis-related mRNA expression in a placebo-treated wound. […] C. Blood flow imaging of wounds was performed non-invasively using a Laser Doppler blood flow imaging device. Images reflecting the blood flow (right panel) and a digital photo (region of interest; left panel) from post-heal tissue are shown. Data i.e., mean±SD of the blood flow is presented (bar graph). The mean represents the arithmetic mean of all valid blood flow values for pixels within the region of interest.
(§2) Paired excisional wounds were either treated with placebo saline or H2O2 (1.25 micromole/wound, days 0-4, once daily). Wound-edge tissue was collected at indicated times after wounding.

In series [3] the test system is Flt-1 mRNA. Particulars: 1.25 micromole/wound, once daily, days 0-4; wound-edge tissue. Here is the method:
as §1, §2

In series [4] the test system is VEGF mRNA. Particulars: 1.25 micromole/wound, once daily, days 0-4; wound-edge tissue. On the procedure:
as §1, §2

The subject of series [5] is wound blood flow. Conditions: 1.25 micromole/wound, days 0-4, once daily; post-heal tissue; vs placebo saline. On the procedure:
as §1, §2
Images reflecting the blood flow (right panel) and a digital photo (region of interest; left panel) from post-heal tissue are shown. […] The mean represents the arithmetic mean of all valid blood flow values for pixels within the region of interest.

In series [6] the test system is focal adhesion kinase (FAK). Particulars: HMEC-1 microvascular endothelial cells; various doses, 0.1 mM for kinetics.
Procedure: Human microvascular endothelial cells (HMEC-1) were treated with H2O2 for indicated dose and duration. Phosphorylation of FAK was detected using Western blot and phosphorylation site-specific antibodies against FAK. Native FAK or β-actin was blotted to show equal loading. A. Effect of various dose of H2O2 treatment on phosphorylation (Ty 925) state of FAK. B. Kinetics of site-specific activation phophorylation of FAK in HMEC cells following H2O2 (0.1 mM) treatment.
Human microvascular endothelial cells (HMEC-1) were treated with H2O2 for indicated dose and duration. Phosphorylation of FAK was detected using Western blot and phosphorylation site-specific antibodies against FAK. Native FAK or β-actin was blotted to show equal loading.
Series [7] has as its system focal adhesion kinase (FAK). Conditions: wound-edge tissue, 1.25 micromole/wound, 30 minutes after wounding.
Procedure: Human microvascular endothelial cells (HMEC-1) were treated with H2O2 for indicated dose and duration. Phosphorylation of FAK was detected using Western blot and phosphorylation site-specific antibodies against FAK. Native FAK or β-actin was blotted to show equal loading. […] B. Kinetics of site-specific activation phophorylation of FAK in HMEC cells following H2O2 (0.1 mM) treatment. […] Paired excisional wounds (FIG. 2) were either treated with placebo saline or H2O2 (1.25 micromole/wound). Wound-edge tissue was collected 30 min after wounding. FAK phosphorylation in wound edge tissue was determined using Western blot. Data from three animals (#1-#3) are shown.
In FIG. 5C, paired excisional wounds were either treated with placebo saline or H2O2 (1.25 micromole/wound). Wound-edge tissue was collected 30 minutes after wounding. FAK phosphorylation in wound edge tissue was determined using Western blot. Data from three animals (#1-#3) are shown.
Series [8] relates to keratin 14. Particulars: p47phox knockout mice; 1.25 micromoles/wound, days 0-4; day 18 post-wounding, after closure.
Procedure: Two excisional wounds (FIG. 2) were-laced on the dorsal skin of 8 wk old C57BL/6, MCP-1 or p47phox KO mice. Each of the two wounds was treated with either saline or H2O2 (1.25 micromoles/wound; days 0-4). […] C. […] D. Keratin 14 (green fluorescence) expression in skin of p47phox KO mice harvested from wound sites after closure on day 18 post-wounding.
Briefly, two excisional wounds were placed on the dorsal skin of eight-week-old C57BL/6, MCP-1 or p47^phox knockout mice. Each of the two wounds was treated with either saline or H2O2 (1.25 micromoles/wound; days 0-4).

SMILES strings stand for the structures. Read-outs that look alike come from different tables or passages of the source.

With `OO` [H2O2, hydrogen peroxide], the “tissue damage / survival” value in series [1] (62.5 micromoles/wound (0.025 ml of 7.5% solution), once on day 0) is “caused necrotic tissue damage and severe injury, leading to death of the mice”. For the same compound, the wound closure result in series [1] (high dose 25 micromoles/wound (0.025 ml of 3% solution), once daily days 0-4, compared to low dose 1.25 micromoles/wound) is “adversely affected closure”; in series [1] (low-dose 1.25 micromoles/wound (0.025 ml of 0.15% solution), topical, once daily, days 0-4, vs placebo saline side) it was “facilitated closure moderately”. Further, the “vascularization (CD31 stain)” value in series [2] is “better vascularization”. In addition, in series [3], the “wound-induced Flt-1 mRNA expression” value is recorded as “further augmented”. Besides, the “wound-induced VEGF mRNA expression” value in series [4] is “further augmented”. In series [5], the blood flow entry was “increased blood flow”. The “phosphorylation of FAK” value in series [6] and in series [7] was “Induced Phosphorylation” throughout. For the same compound, the “keratin 14 expression” value in series [8] is listed as “comparable to normal skin”.
